Columns and labels:
Format in all cases: in vivo
[1] = tested on: barnyardgrass (Echinochloa crus-galli); test: Test A pre/postemergence
In short: (§1)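 Seeds in loam–sand blend received preemergence directed soil spray and, concurrently, postemergence application (plants 2–10 cm, 1–2-leaf stage) of compound in non-phytotoxic solvent with surfactant. After about ten days in greenhouse, injury rated visually versus untreated controls, 0 (no effect) to 100 (complete control).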

[2] = tested on: crabgrass (Digitaria sanguinalis); test: Test A pre/postemergence
In short: as §1

[3] = tested on: giant foxtail (Setaria faberi); test: Test A pre/postemergence
In short: as §1

[4] = tested on: morningglory (Ipomoea spp.); test: Test A pre/postemergence
In short: as §1

[5] = tested on: redroot pigweed (Amaranthus retroflexus); test: Test A pre/postemergence
In short: as §1

[6] = tested on: velvetleaf (Abutilon theophrasti); test: Test A pre/postemergence
In short: as §1

[7] = tested on: Surinam grass (Brachiaria decumbens); test: Test B pre/postemergence; details: for Surinam Grass plant response rating: Postemergence; for Plant response rating, Surinam Grass: Preemergence
Excerpt: (§2) Seeds selected from barnyardgrass (Echinochloa crus-galli), Surinam grass (Brachiaria decumbens), cocklebur (Xanthium strumarium), corn (Zea mays), crabgrass (Digitaria sanguinalis), giant foxtail (Setaria faberii), lambsquarters (Chenopodium album), morningglory (Ipomoea coccinea), pigweed (Amaranthus retroflexus), velvetleaf (Abutilon theophrasti), and wheat (Triticum aestivum) were planted and treated preemergence with test chemicals formulated in a non-phytotoxic solvent mixture which included a surfactant.
(§3) At the same time, plants selected from these crop and weed species and also blackgrass (Alopecurus myosuroides) and wild oat (Avena fatua) were treated with postemergence applications of test chemicals formulated in the same manner. Plants ranged in height from 2 to 18 cm (1- to 4-leaf stage) for postemergence treatments. Plant species in the flooded paddy test consisted of rice (Oryza sativa), umbrella sedge (Cyperus difformis), duck salad (Heteranthera limosa) and barnyardgrass (Echinochloa crus-galli) grown to the 2-leaf stage for testing. Treated plants and controls were maintained in a greenhouse for 13 to 15 days, after which time all species were compared to controls and visually evaluated. Plant response ratings, summarized in Table B, are based on a scale of 0 to 100 where 0 is no effect and 100 is complete control. A dash (-) response means no test result.

[8] = tested on: barnyardgrass (Echinochloa crus-galli); test: Test B pre/postemergence; details: for Barnyardgrass plant response rating: Postemergence; for Plant response rating, Barnyardgrass: Preemergence
Excerpt: as §2, §3

[9] = tested on: cocklebur (Xanthium strumarium); test: Test B pre/postemergence; details: for Cocklebur plant response rating: Postemergence; for Plant response rating, Cocklebur: Preemergence
Excerpt: as §2, §3

corn (Zea mays) = test: Test B pre/postemergence; details: for Corn plant response rating: Postemergence; for Plant response rating, Corn: Preemergence
Excerpt: as §2, §3

[10] = tested on: crabgrass (Digitaria sanguinalis); test: Test B pre/postemergence; details: for Crabgrass plant response rating: Postemergence; for Plant response rating, Crabgrass: Preemergence
Excerpt: as §2, §3

[11] = tested on: giant foxtail (Setaria faberii); test: Test B pre/postemergence; details: for Foxtail, Giant plant response rating: Postemergence; for Plant response rating, Foxtail, Giant: Preemergence
Excerpt: as §2, §3

[12] = tested on: lambsquarters (Chenopodium album); test: Test B pre/postemergence; details: for Lambsquarters plant response rating: Postemergence; for Plant response rating, Lambsquarters: Preemergence
Excerpt: as §2, §3

[13] = tested on: morningglory (Ipomoea coccinea); test: Test B pre/postemergence; details: for Morningglory plant response rating: Postemergence; for Plant response rating, Morningglory: Preemergence
Excerpt: as §2, §3

[14] = tested on: pigweed (Amaranthus retroflexus); test: Test B pre/postemergence; details: for Pigweed plant response rating: Postemergence; for Plant response rating, Pigweed: Preemergence
Excerpt: as §2, §3

[15] = tested on: velvetleaf (Abutilon theophrasti); test: Test B pre/postemergence; details: for Velvetleaf plant response rating: Postemergence; for Plant response rating, Velvetleaf: Preemergence
Excerpt: as §2, §3

[16] = tested on: wheat (Triticum aestivum); test: Test B pre/postemergence; details: for Wheat plant response rating: Postemergence; for Plant response rating, Wheat: Preemergence
Excerpt: as §2, §3

[17] = tested on: blackgrass (Alopecurus myosuroides); test: Test B postemergence; details: scale 0 to 100 (0 no effect, 100 complete control)
In short: (§4)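 Pre: compound (non-phytotoxic solvent + surfactant) applied to freshly planted seeds. Post: same formulation sprayed on 2–18 cm plants, 1- to 4-leaf. Readout: visual control rating 0–100 vs controls, 13–15 d, greenhouse.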

wild oat (Avena fatua) = test: Test B postemergence; details: scale 0 to 100 (0 no effect, 100 complete control)
In short: as §4

[18] = tested on: barnyardgrass (Echinochloa crus-galli); test: Test B flooded paddy test; details: Flood, scale 0 to 100
In short: (§5)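 Rice, umbrella sedge, duck salad and barnyardgrass grown to 2-leaf stage under flooded paddy conditions and treated with formulated test chemicals. Kept in greenhouse 13–15 days, then visually rated against untreated controls on a 0–100 scale (0 no effect, 100 complete control).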

[19] = tested on: duck salad (Heteranthera limosa); test: Test B flooded paddy test; details: Flood, scale 0 to 100
In short: as §5

rice (Oryza sativa) = test: Test B flooded paddy test; details: Flood, scale 0 to 100
In short: as §5

[20] = tested on: umbrella sedge (Cyperus difformis); test: Test B flooded paddy test; details: Flood, scale 0 to 100
In short: as §5

[21] = Postemergence, 125 g ai/ha, 0 to 100 scale (0 no effect, 100 complete control)
[22] = Postemergence, 500 g ai/ha, 0 to 100 scale (0 no effect, 100 complete control)
[23] = Preemergence, 125 g ai/ha, 0 to 100 scale where 0 is no effect and 100 is complete control, approximately ten days
[24] = Preemergence, 500 g ai/ha, 0 to 100 scale where 0 is no effect and 100 is complete control, approximately ten days
[25] = 62 g ai/ha, scale 0 to 100 (0 no effect, 100 complete control)
[26] = 125 g ai/ha, scale 0 to 100 (0 no effect, 100 complete control)
[27] = 62 g ai/ha, scale 0 to 100, 0 no effect, 100 complete control

## COC(=O)c1nc(-c2ccc(F)cc2)nc(N)c1Br [Compound 92]
[1]; [21]
  Plant response rating, Barnyardgrass: 0
[1]; [22]
  Plant response rating, Barnyardgrass: 0
[1]; [23]
  Plant response rating, Barnyardgrass: 0
[1]; [24]
  Plant response rating, Barnyardgrass: 0
[2]; [21]
  Plant response rating, Crabgrass: 0
[2]; [22]
  Plant response rating, Crabgrass: 5
[2]; [23]
  Plant response rating, Crabgrass: 0
[2]; [24]
  Plant response rating, Crabgrass: 0
[3]; [21]
  Plant response rating, Foxtail, Giant: 0
[3]; [22]
  Plant response rating, Foxtail, Giant: 0
[3]; [23]
  Plant response rating, Foxtail, Giant: 0
[3]; [24]
  Plant response rating, Foxtail, Giant: 0
[4]; [21]
  Plant response rating, Morningglory: 45
[4]; [22]
  Plant response rating, Morningglory: 75
[4]; [23]
  Plant response rating, Morningglory: 0
[4]; [24]
  Plant response rating, Morningglory: 0
[5]; [21]
  Plant response rating, Pigweed: 35
[5]; [22]
  Plant response rating, Pigweed: 70
[5]; [23]
  Plant response rating, Pigweed: 15
[5]; [24]
  Plant response rating, Pigweed: 45
[6]; [21]
  Plant response rating, Velvetleaf: 45
[6]; [22]
  Plant response rating, Velvetleaf: 70
[6]; [23]
  Plant response rating, Velvetleaf: 10
[6]; [24]
  Plant response rating, Velvetleaf: 45
[7]; [25]
  Surinam Grass plant response rating: 0
[7]; [26]
  Surinam Grass plant response rating: 10
  Plant response rating, Surinam Grass: 0
[7]; [27]
  Plant response rating, Surinam Grass: 0
[8]; [25]
  Barnyardgrass plant response rating: 10
[8]; [26]
  Barnyardgrass plant response rating: 10
  Plant response rating, Barnyardgrass: 30
[8]; [27]
  Plant response rating, Barnyardgrass: 10
[9]; [25]
  Cocklebur plant response rating: 60
[9]; [26]
  Cocklebur plant response rating: 80
  Plant response rating, Cocklebur: 50
[9]; [27]
  Plant response rating, Cocklebur: 40
Corn (Zea mays); [25]
  Corn plant response rating: 0
Corn (Zea mays); [26]
  Corn plant response rating: 0
  Plant response rating, Corn: 0
Corn (Zea mays); [27]
  Plant response rating, Corn: 0
[10]; [25]
  Crabgrass plant response rating: 0
[10]; [26]
  Crabgrass plant response rating: 20
  Plant response rating, Crabgrass: 10
[10]; [27]
  Plant response rating, Crabgrass: 0
[11]; [25]
  Foxtail, Giant plant response rating: 20
[11]; [26]
  Foxtail, Giant plant response rating: 30
  Plant response rating, Foxtail, Giant: 10
[11]; [27]
  Plant response rating, Foxtail, Giant: 0
[12]; [25]
  Lambsquarters plant response rating: 90
[12]; [26]
  Lambsquarters plant response rating: 90
  Plant response rating, Lambsquarters: 80
[12]; [27]
  Plant response rating, Lambsquarters: 50
[13]; [25]
  Morningglory plant response rating: 50
[13]; [26]
  Morningglory plant response rating: 60
  Plant response rating, Morningglory: 0
[13]; [27]
  Plant response rating, Morningglory: 0
[14]; [25]
  Pigweed plant response rating: 70
[14]; [26]
  Pigweed plant response rating: 80
  Plant response rating, Pigweed: 80
[14]; [27]
  Plant response rating, Pigweed: 40
[15]; [25]
  Velvetleaf plant response rating: 50
[15]; [26]
  Velvetleaf plant response rating: 60
  Plant response rating, Velvetleaf: 70
[15]; [27]
  Plant response rating, Velvetleaf: 50
[16]; [25]
  Wheat plant response rating: 0
[16]; [26]
  Wheat plant response rating: 0
  Plant response rating, Wheat: 30
[16]; [27]
  Plant response rating, Wheat: 0
[17]; 62 g ai/ha
  Blackgrass plant response rating: 20
[17]; 125 g ai/ha
  Blackgrass plant response rating: 20
Wild oat (Avena fatua); 62 g ai/ha
  Oat, Wild plant response rating: 0
Wild oat (Avena fatua); 125 g ai/ha
  Oat, Wild plant response rating: 0
[18]; 125 g ai/ha
  Plant response rating, Barnyardgrass: 0
[18]; 500 g ai/ha
  Plant response rating, Barnyardgrass: 0
[19]; 125 g ai/ha
  Plant response rating, Ducksalad: 80
[19]; 500 g ai/ha
  Plant response rating, Ducksalad: 90
Rice (Oryza sativa); 125 g ai/ha
  Plant response rating, Rice: 0
Rice (Oryza sativa); 500 g ai/ha
  Plant response rating, Rice: 0
[20]; 125 g ai/ha
  Plant response rating, Sedge, Umbrella: 80
[20]; 500 g ai/ha
  Plant response rating, Sedge, Umbrella: 90

Reference: patent US8802597B2, “Herbicidal pyrimidines” (E I du Pont de Nemours and Company, priority 2003, dated 2014)
